US20150203474A1, “SOLID FORMS COMPRISING INHIBITORS OF HCV NS5A, COMPOSITIONS THEREOF, AND USES THEREWITH” (PRESIDIO PHARMACEUTICALS ,INC., priority 2012, published 2015)
≈ marks a conversion by molar mass, not a printed value. Like-named read-outs stand apart in the source and are kept apart here.

Experiments:
[1] = PK study of Form A of Compound I in rats; format: in vivo; settings: male, Sprague-Dawley, rat, plasma, po, 75 mg/kg, single PO dose of 75 mg/kg, male SD rats
Protocol: The pharmacokinetics (PK) properties of Form A of Compound I and Form I of Compound II were determined in a series of comprehensive experiments in preclinical species including Sprague-Dawley rats, beagle dogs, cynomolgus monkeys. In those studies, the Form A crystalline salt of Compound I (and Form I crystalline salt of Compound II) was formulated in saline, 0.5% MC in saline or other commonly used suitable formulation vehicles to give a clear solution or as a suspension or a paste depending on the concentration intended to reach and the choice of vehicles. Dosing was by oral gavage. Blood samples were drawn and placed into individual tube containing K2EDTA. Blood samples were put on ice and centrifuged (2000 g for 5 minutes at 4° C.) to obtain plasma within 15 minutes after collection. Plasma samples were stored at approximately −80° C. freezer until analysis. For most of these analyses, Compound I (and Compound II) and the internal standard (IS) were extracted from rat, monkey or dog plasma by protein precipitation, and the extract was evaporated, reconstituted and analyzed using HPLC with tandem mass spectrometric detection (HPLC-MS/MS), see examples for further details. Calibration was accomplished by weighted linear regression of the ratio of the peak area of analyte to that of the added internal standard (IS). For the validated assay in rat and monkey EDTA plasma, the Lower Limit of Quantitation (LLOQ) for both compound 1 and 2 was 5.00 ng/mL, and the assay was linear from 5.00-1,000 ng/mL. PK parameters were calculated by non-compartmental analysis using WinNonlin (versions 4.1 through 6.1). 1) Weighed 922.80 mg of Form A of Compound I (equivalent to 824.603 mg of free base) into a clean tube. 2) Added 54.974 mL of 0.5% methylcellulose in saline into the tube containing the Form A of Compound I, vortexed for 3-5 min and sonicated for 10-15 min. The dosing solution was a light yellow and clear solution. Sprague Dawley rats, ˜7-9 weeks old and weighing ˜210-270 g, were given the above dosing solution at 5 mL/kg. […] Sample Preparation for Analysis: An aliquot of 30 μL of plasma sample was mixed with 30 μL of the IS (200 ng/mL), then mixed with 150 μL ACN for protein precipitation. The mixture was vortexed for 2 min and centrifuged at 12000 rpm for 5 min. An aliquot of 1 μL of supernatant was injected onto HPLC-MS/MS, if no further dilution was needed. To prepare a 10-fold diluted plasma samples, an aliquot of 10 μL plasma sample was mixed with 90 μL blank plasma to obtain the diluted plasma samples. The extraction procedure for diluted samples was as the same as that used for the non-diluted samples. • Compound Concentration Quantitation: • Instrument HPLC-MS/MS-12 (API4000), on positive ionization mode, ESI+ • HPLC Conditions Mobile Phase A: H2O—0.025% formic acid (FA)—1 mM NH4OAc • Mobile Phase B: MeOH—0.025% FA—1 mM NH4OAc Pharmacokinetic analysis was done using the WinNonlin software (Version 5.3, Pharsight Corporation, California, USA). Any concentration data under LLOQ (LLOQ=1.00 ng/mL in rat plasma and 3.00 ng/mL in rat liver homogenate) were replaced with “BQL”.

[2] = Solubility of Form A (aliquot addition / slurry, visual); format: physicochemical
Protocol: Aliquots of various solvents were added to measured amounts of Form A with agitation (typically sonication) at ambient or elevated temperatures until completedissolution was achieved, as judged by visual observation. […] Samples were left to slurry at ambient and elevated temperatures for several days; however, no further dissolution was observed.

[3] = Mean (N = 3), read-out: mean plasma concentration
[4] = Rat #1, read-out: plasma concentration
[5] = Rat #2, read-out: plasma concentration
[6] = Rat #3, read-out: plasma concentration

With COC(=O)N[C@H](C(=O)N1CCC[C@H]1c1ncc(-c2ccc3cc(-c4ccc5nc([C@@H]6CCCN6C(=O)[C@@H](NC(=O)OC)C(C)C)[nH]c5c4)ccc3c2)[nH]1)C(C)C [Form A of Compound I] the concentration at 1 h [1, 3] was 5970 ng/mL, the concentration at 1 h [1, 4] was 6210 ng/mL and the concentration at 1 h [1, 5] was 5480 ng/mL. The concentration at 1 h [1, 6] was 6230 ng/mL, the concentration at 2 h [1, 3] was 7430 ng/mL and the concentration at 2 h [1, 4] was 8030 ng/mL. It also gave a concentration at 2 h [1, 5] of 7890 ng/mL, a concentration at 2 h [1, 6] of 6380 ng/mL and a concentration at 3 h [1, 3] of 8340 ng/mL. For the same compound, the concentration at 3 h [1, 4] was 5670 ng/mL, the concentration at 3 h [1, 5] was 8060 ng/mL and the concentration at 3 h [1, 6] was 11300 ng/mL. For the same compound, the concentration at 4 h [1, 3] was 3930 ng/mL, the concentration at 4 h [1, 4] was 3680 ng/mL and the concentration at 4 h [1, 5] was 5170 ng/mL. It also gave a concentration at 4 h [1, 6] of 2930 ng/mL, a concentration at 6 h [1, 3] of 2850 ng/mL and a concentration at 6 h [1, 4] of 2780 ng/mL. The concentration at 6 h [1, 5] was 3370 ng/mL, the concentration at 6 h [1, 6] was 2400 ng/mL and the concentration at 8 h [1, 3] was 531 ng/mL. The concentration at 8 h [1, 4] was 498 ng/mL, the concentration at 8 h [1, 5] was 704 ng/mL and the concentration at 8 h [1, 6] was 390 ng/mL. The concentration at 12 h [1, 3] was 176 ng/mL, the concentration at 12 h [1, 4] was 188 ng/mL and the concentration at 12 h [1, 5] was 277 ng/mL. For the same compound, the concentration at 12 h [1, 6] was 63.6 ng/mL, the concentration at 24 h [1, 3] was 8.07 ng/mL and the concentration at 24 h [1, 4] was 8.12 ng/mL. For the same compound, the concentration at 24 h [1, 5] was 7.95 ng/mL, the concentration at 24 h [1, 6] was 8.15 ng/mL and the “Solubility estimate (in words)” value ([2]; IPA and IPA/MTBE (2/1 (v/v)) mixtures at ambient and elevated temperatures, aliquot addition) was “poorly soluble”. For the same compound, the solubility ([2]; IPA/water (95/5 v/v), organic solvent or mixture, thermodynamic from solid, IPA:H2O (95:5), RT, aliquot addition) was 33000 µg/mL (≈ 43.3 mM), the solubility ([2]; organic solvent or mixture, thermodynamic from solid, IPA, RT, aliquot addition) was < 3000 µg/mL and the solubility at 4 days ([2]; organic solvent or mixture, thermodynamic from solid, IPA, RT, slurry, 4 days) was < 3000 µg/mL. For the same compound, the solubility ([2]; organic solvent or mixture, thermodynamic from solid, IPA, ~60° C., aliquot addition) was 2000 µg/mL (≈ 2.62 mM), the solubility at 6 days ([2]; organic solvent or mixture, thermodynamic from solid, IPA, ~60° C., slurry, 6 days) was < 6000 µg/mL and the solubility ([2]; organic solvent or mixture, thermodynamic from solid, IPA:tBME (2:1), RT, aliquot addition) was < 2000 µg/mL. For the same compound, the solubility at 3 days ([2]; organic solvent or mixture, thermodynamic from solid, IPA:tBME (2:1), RT, slurry) was < 2000 µg/mL, the solubility ([2]; organic solvent or mixture, thermodynamic from solid, IPA:tBME (2:1), ~60° C., aliquot addition) was < 3000 µg/mL and the solubility at 3 days ([2]; organic solvent or mixture, thermodynamic from solid, IPA:tBME (2:1), ~60° C., slurry) was < 3000 µg/mL.
